# Data published in patent publication US8940697B2, “Compositions and methods for the treatment of myocardial ischemia/reperfusion injury with Annexin A1 short peptide” (Duke University, priority 2009, dated 2015).
# Entries after “also recorded” stand apart in the source; their conditions may differ. Marks after values point to notes of the source that are not given here. No end group written: not given here.
# Key:
# [1] = test system: adult rat ventricular cardiomyocytes (ARVC); experiment: Long-term culture survival of adult rat cardiomyocytes in normal or high glucose; type: cell-based; details: for cardiomyocytes still alive, with rod-shaped morphology: day 26
# Source text: Cardiomyocytes isolated from adult rats were exposed to ANXAsp (FIG. 3C and FIG. 3D) or the N-terminal 25mer Ac2-26 (FIG. 3E and FIG. 3F) in either normal glucose (NG) or high glucose (HG), respectively, for 26 days, Untreated control cells in normoglycemic and hyperglycemic media are presented in FIG. 3A and FIG. 3B,
# (§1) Cardiomyocytes isolated from adult rat in both normal and hyperglycemic culture media were exposed directly to ANXA1sp. […] The cardioprotective effects of ANXA1sp was further examined in hyperglycemic exacerbation of myocardial injury due to simulated ischemia/reperfusion in vitro. Adult rat ventricular cardiomyocytes (ARVCs) were treated with/without either ANXA1sp or Ac2-26 in both normo- and hyperglycemic culture media for 24 hours. Cells were washed with deoxygenated glucose-free DMEM medium in an anaerobic chamber that filtrated a gas mixture of 5% CO2-10% H2-85% N2 and incubated for 2 hours. After oxygen/glucose deprivation (OGD), cells were cultured under normoxic conditions in a 5% CO2 incubator for 24 hours. Cells without OGD were used as a positive control. Cell death was determined by trypan blue exclusive staining. Cells were counted in triplicate wells and in eight random fields in each well.
# [2] = test system: NF-kB activation in human pancreatic cancer cell lines; experiment: NF-kB activation in human pancreatic cancer cell lines by ANXA1 N-terminus short peptides; type: cell-based; details: compared with the other ANXA1 peptides of FIG. 1
# Source text: FIG. 1 is a graph showing the effect of ANXA1 N-terminus short peptides Ac-QAW, Ac-KQAW (SEQ ID NO:3), Ac-[…] (SEQ ID NO:10), Ac-FLK, Ac-EFLKQAW (SEQ ID NO:6) and Ac-VSEFLKQAW (SEQ ID NO:9) on NF-kB activation in human pancreatic cancer cell lines. Values presented are means±SD; n=5; *P<0.05 and #P<0.001 vs. control (0). Ac=acetylation.
# [3] = test system: NIH 3T3 cells; experiment: LPS-induced NIH 3T3 cells: NF-κB activity, IL-6, cell death; type: cell-based; details: LPS+peptide vs LPS, 0, 1, 3 and 6 hours
# Procedure: FIG. 2A is a graph showing the effect of ANXA1sp on NF-κB activity over time on NIH 3T3 cells activated with LPS alone and LPS+peptide. FIG. 2B is a graph showing the effect of ANXA1sp on interleukin-6 (IL-6) production over time by NIH 3T3 cells activated with LPS alone and LPS+peptide.
# The ANXA1sp was next tested in LPS-induced NIH 3T3 cells to determine if NF-κB activity was inhibited. NIH 3T3 cells were exposed to LPS or LPS+ANXA1sp (LPS+Peptide) for 0, 1, 3 and 6 hours. Cell lysates were obtained and levels of NF-κB activity and IL-6 were measured by ELISA. Cell death was also measured by Trypan blue exclusion.
# [4] = test system: adult rat ventricular cardiomyocytes (ARVC); experiment: ARVC simulated I/R (oxygen-glucose deprivation/reoxygenation); type: cell-based; details: for cTnI: 30 μM ANXA1sp, 2 h OGD + 24 h reoxygenation, supernatant; for HFABP / TNFα / Apoptosis / Cell Death: 30 μM, OGD/reoxygenation; for Apoptosis: ELISA; for Cell Death: trypan blue
# Procedure: FIG. 4A. Cells were exposed to normal glucose (NG) (a, e), high glucose (HG) (b, f), HG+ANXA1sp (c, g) and HG+Ac2-26 (d, h), respectively, for 24 hours. Cells (e, f, g, h) were washed with deoxygenated glucose-free DMEM medium in an anaerobic chamber that contained a gas mixture of 5% CO2, 10% H2, and 85% N2 and incubated for 2 hours. After oxygen/glucose deprivation (OGD), ARVC cells were cultured in DMEM medium under normoxic conditions in a 5% CO2 incubator for 24 hours. Cells (a, b, c, d) without OGD were used as a control. Cell death was determined by trypan blue staining. FIG. 4B is a graph of the results obtained in FIG. 4A. Specifically, cells were counted in a total of eight random fields in triplicate wells. Values presented are means±SD; n=8.
# as §1
# In vitro study: ARVCs from male Sprague-Dawley (SD) rats were incubated in normal or high glucose (25 mM), with and without 30 μM ANXA1sp (Ac-QAW), or with a scrambled peptide (Ac-QWA), respectively for 24 h. Cells were subjected to 2 h oxygen-glucose deprivation (OGD), followed by 24 h reoxygenation in either normo- or hyperglycemic conditions. Cell death was determined histologically (trypan blue exclusion) and biochemically (supernatant levels of cTnI and HFABP, ELISA). Apoptosis was quantified using ELISA (Roche).
# [5] = test system: male SD rats; experiment: Rat CPB/CA model of myocardial I/R injury (normo- and hyperglycemic); type: in vivo; details: for NF-κB activity / IL-6 / TNF-α / Caspase-3 / MPO / Apoptosis / HFABP / cTnI: 3 mg/kg total; for NF-κB activity: myocardial DNA binding activity; for NF-κB activity / IL-6 / TNF-α / Caspase-3 / MPO / Apoptosis / HFABP: 24 h; for IL-6 / TNF-α: myocardial tissue; for Caspase-3 / MPO / Apoptosis: myocardium; for Apoptosis: TUNEL; for HFABP / cTnI: plasma; for cTnI: 24 h post-reperfusion
# Procedure: Next, studies were carried out to determine the effectiveness of ANXA1sp on myocardial protection in vivo using a clinically-relevant rodent experimental model of surgical global myocardial ischemia/reperfusion injury. […] Rats were exposed to CPB for 15 minutes before ischemic/reperfusion injury was initiated (i.e., cardioplegic arrest was induced) and maintained for 45 minutes, followed by another 15 minutes of CPB. Animals were weaned from cardiopulmonary bypass and allowed to recover for 24 hours, at which point blood and left ventricular myocardial tissue were harvested for analysis. FIG. 5B is a graph showing the blood glucose levels in rats before and after ischemia. Acute hyperglycemia was induced using dextrose 25% (5 gm/kg) administered preoperatively 0.75 gm intraperitoneally, intraoperatively 0.25 gm in CPB prime and 0.5 gm/hr intravenously, and postoperatively 1 hour after weaning from CPB (intraperitoneally). Perioperative blood glucose levels were maintained at >300 mg/dl. Cardioplegic arrest was induced with cold (4:1) blood cardioplegia. Animals in the AXNA1sp treated group received a total of 3 mg/kg ANXA1sp in 3 equal doses administered before (intraperitoneally), during (intracoronary, mixed with cardioplegia solution), and after CPB (intraperitoneally), respectively. Control animals underwent an identical surgical procedure with vehicle instead of ANXA1sp.
# In vivo study: with IACUC approval, male SD rats were randomly assigned to 4 groups in a 2×2 design (n=5/group): normo- and hyperglycemic (20 mM) cardioplegic arrest (CA), each treated with ANXA1sp or vehicle, respectively. All animals underwent 75 min of mild hypothermic CPB (33° C.) with 45 min of CA using blood cardioplegia. Treatment groups received ANXA1sp (Ac-QAW, GenScript, 3 mg/kg total) before (ip), during (with cardioplegia), and after CPB (ip) in equal doses, whereas CA control animals received saline. No animals received insulin. At 24 h post-reperfusion the following efficacy end-points were assessed by investigators blinded to the experimental group: 1) plasma myonecrosis biomarkers—cTnI and HFABP (rat specific ELISA, LifeDiagnostics); 2) myocardial apoptosis—cleaved caspase-3 (immunostaining and Western blot) and TUNEL assays; 3) myocardial inflammation—NF-kB DNA binding activity (ELISA, Panomics) and tissue levels of TNF-α and IL-6 (ELISA, ThermoScientific); and 4) myocardial neutrophil transmigration—myeloperoxidase (MPO) activity (ELISA, ThermoScientific).
# [6] = test system: Male Yorkshire pigs; experiment: Pig CPB/CA model of myocardial I/R injury; type: in vivo
# Procedure: Pig CPB/CA: Male Yorkshire pigs (32-38 kg) were subjected to 120 min of mild hypothermic CPB, including 60 min of CA using 4:1 blood cardioplegia, and received either ANXA1sp (iv after anesthesia induction and with each dose of cardioplegia, 4 mg/kg total, CA_SP group, n=4) or vehicle (CA_CTRL, n=8). Efficacy endpoints and underlying mechanisms were assessed as described herein.
# [7] = 4 mg/kg, systemically and in the cardioplegia solution
substance,measurement,setting,value
"Ac-Ala-Met-Val-Ser-Glu-Phe-Leu-Lys-Gln-Ala-Trp-Phe-Ile-Glu-Asn-Glu-Glu-Gln-Glu-Tyr-Val-Gln-Tyr-Val-Lys (Ac-AMVSEFLKQAWFIENEEQEYVQYVK) [Ac2-26, commercial annexin A1 N-terminal 25mer peptide, reference compound]",rod-shaped cardiomyocytes found,"[1]; normal and hyperglycemic media, beyond day 14",no rod-shaped cardiomyocytes were found
Ac-Gln-Ala-Trp [ANXA1sp],inhibiting NF-κB activity,[2],most effective at inhibiting NF-κB activity
same,"apoptosis (cell death, Trypan blue exclusion)",[3],inhibited
same,IL-6,[3]; ELISA,inhibited
same,NF-κB activity,[3]; ELISA of cell lysates,inhibited
same,protection of cardiomyocytes from cell death,[1]; both normo- and hyperglycemic conditions,significantly protected cardiomyocytes from cell death
same,"cardiomyocytes still alive, with rod-shaped morphology",[1]; high glucose,~50%
same,cardioprotective effect compared with Ac2-26,"[1]; long-term culture, normal and high glucose","much stronger than that of the commercial annexin A1 N-terminal peptide, Ac2-26"
same,"cardiomyocytes still alive, with rod-shaped morphology",[1]; normal glucose,about 70%
same,cardiomyocyte cell death (trypan blue),"[4]; 24 h pretreatment, 2 h OGD, 24 h normoxia, Example 3",significantly decreased cardiomyocyte cell death
same,cTnI,[4]; HG_SP: high glucose (25 mM),7.8 ± 0.6 ng/mL
same,HFABP,[4]; HG_SP: high glucose (25 mM),2.0 ± 0.4 ng/mL
same,TNFα,[4]; HG_SP: high glucose (25 mM),1.2 ± 0.1 ng/mg protein
same,Apoptosis,[4]; HG_SP: high glucose (25 mM),0.7 ± 0.2 A.U.
same,Cell Death,[4]; HG_SP: high glucose (25 mM),40.5 ± 11.1 %
same,cTnI,[4]; NG_SP: normal glucose,5.7 ± 0.4 ng/mL
same,HFABP,[4]; NG_SP: normal glucose,2.4 ± 1.4 ng/mL
same,TNFα,[4]; NG_SP: normal glucose,0.84 ± 0.1 ng/mg protein
same,Apoptosis,[4]; NG_SP: normal glucose,0.7 ± 0.2 A.U.
same,Cell Death,[4]; NG_SP: normal glucose,38.6 ± 5.9 %
same,cardioprotective efficacy compared with Ac2-26,"[4]; OGD, high glucose, Example 3, FIG. 4",stronger cardioprotective efficacy than Ac2-26
same,NF-κB activity,[5]; CAHG_SP: hyperglycemic,1.5 ± 0.5 A.U.
same,IL-6,[5]; CAHG_SP: hyperglycemic,107.3 ± 15.5 ng/mg
same,TNF-α,[5]; CAHG_SP: hyperglycemic,105.6 ± 13.3 ng/mg
same,Caspase-3,[5]; CAHG_SP: hyperglycemic,5.9 ± 1.4 A.U.
same,MPO,[5]; CAHG_SP: hyperglycemic,467.2 ± 72.4 ng/mg
same,Apoptosis,[5]; CAHG_SP: hyperglycemic,9.5 ± 1.2 %
same,HFABP,[5]; CAHG_SP: hyperglycemic,12.4 ± 2.6 ng/mL
same,cTnI,[5]; CAHG_SP: hyperglycemic,2.1 ± 0.5 ng/mL
same,NF-κB activity,[5]; CA_SP: normoglycemic,0.8 ± 0.04 A.U.
same,IL-6,[5]; CA_SP: normoglycemic,38.2 ± 8.1 ng/mg
same,TNF-α,[5]; CA_SP: normoglycemic,28.8 ± 6.7 ng/mg
same,Caspase-3,[5]; CA_SP: normoglycemic,1.9 ± 1.5 A.U.
same,MPO,[5]; CA_SP: normoglycemic,104.8 ± 6.6 ng/mg
same,Apoptosis,[5]; CA_SP: normoglycemic,2.4 ± 1.1 %
same,HFABP,[5]; CA_SP: normoglycemic,1.0 ± 0.3 ng/mL
same,cTnI,[5]; CA_SP: normoglycemic,1.0 ± 0.7 ng/mL
same,myocardial apoptosis (TUNEL),"[5]; Example 4: acute hyperglycemia, 3 mg/kg, FIG. 7B, 3 mg/kg",attenuated; also recorded: significantly decreased
same,myocardial MPO,"[5]; Example 4: acute hyperglycemia, 3 mg/kg, FIG. 8, 3 mg/kg",attenuated; also recorded: significantly decreased
same,myocardial NF-κB DNA binding activity,"[5]; Example 4: acute hyperglycemia, 3 mg/kg, FIG. 9, 3 mg/kg",attenuated; also recorded: significantly decreased
same,myocardial TNF-α,"[5]; Example 4: acute hyperglycemia, 3 mg/kg, FIG. 10A, 3 mg/kg",attenuated; also recorded: significantly decreased
same,myocardial IL-6,"[5]; Example 4: acute hyperglycemia, 3 mg/kg, FIG. 10B, 3 mg/kg",attenuated; also recorded: significantly decreased
same,myocardial caspase-3 activity,"[5]; Example 4: acute hyperglycemia, 3 mg/kg, Western blot, FIG. 7A, 3 mg/kg",attenuated; also recorded: significantly decreased
same,myonecrosis biomarker HFABP,"[5]; Example 4: acute hyperglycemia, 3 mg/kg, vs CAHG, FIG. 6B, 3 mg/kg",attenuated; also recorded: significantly decreased
same,hyperglycemic exacerbation of perioperative myocardial injury,"[5]; Example 4: cardioplegic arrest and acute hyperglycemia, 3 mg/kg",attenuated
same,myonecrosis biomarker cTnI,"[5]; Example 4: cardioplegic arrest and acute hyperglycemia, 3 mg/kg, vs CAHG, FIG. 6A, 3 mg/kg",attenuated; also recorded: significantly decreased
same,in vivo interaction between ANXA1 and NF-κB p65 subunit,"[5]; co-immunoprecipitation and confocal co-localization in cardiomyocytes, FIG. 11",significantly induces; also recorded: strongly induced
same,hemodynamics,[6]; 4 mg/kg total,improved hemodynamics
same,animals requiring inotropic or vasopressor support,"[6]; 4 mg/kg total, support substantial in all control animals",none requiring either inotropic or vasopressor support
same,left ventricular dysfunction,[6]; [7],significant reduction
same,postoperative arrhythmias,[6]; [7],significant reduction
same,vasoplegia,[6]; [7],significant reduction
same,Apoptosis,[6]; CA_SP: 4 mg/kg total,5.9 ± 2.3 %
same,Epinephrine (inotropic support required),[6]; CA_SP: 4 mg/kg total,0** mcg/6 hs
same,Heart Rate,[6]; CA_SP: 4 mg/kg total,135 ± 18 beats/min
same,NF-κB activity,[6]; CA_SP: 4 mg/kg total,0.8 ± 0.04 A.U.
same,SVI (stroke volume index),[6]; CA_SP: 4 mg/kg total,36 ± 5 ml/m^2
same,TNF-α,[6]; CA_SP: 4 mg/kg total,28.8 ± 6.7 ng/mg protein
same,Vasopressin (vasopressor support required),[6]; CA_SP: 4 mg/kg total,0** U/6 hrs
same,Caspase-3,"[6]; CA_SP: 4 mg/kg total, iv and with cardioplegia",137.3 ± 9.8 A.U.
